In patent publication US5639902A, “(Cyclohexyl)alkene compounds” (Adir et Compagnie, priority 1993, dated 1997):

Key:
[1] = molecular target: T1, LTB4 receptors (Homo sapiens, UniProt Q15722); experiment: Study of binding to LTB4 (Leukotriene B4) receptors on human PMN, displacement of [^3 H]LTB4; conditions: for IC50: human PMN (10^6 cells), 1 nM [^3 H]LTB4, 20 min at 4° C., read-out: 50% inhibition (IC50) of the binding of [^3 H]LTB4
T1 construct: Human PMN are isolated from heparinized venous blood of healthy donors; endogenous in cells; host or cells: human polymorphonuclear leukocytes (PMN) from venous blood of healthy donors
T1 sequence (Q15722 whole entry): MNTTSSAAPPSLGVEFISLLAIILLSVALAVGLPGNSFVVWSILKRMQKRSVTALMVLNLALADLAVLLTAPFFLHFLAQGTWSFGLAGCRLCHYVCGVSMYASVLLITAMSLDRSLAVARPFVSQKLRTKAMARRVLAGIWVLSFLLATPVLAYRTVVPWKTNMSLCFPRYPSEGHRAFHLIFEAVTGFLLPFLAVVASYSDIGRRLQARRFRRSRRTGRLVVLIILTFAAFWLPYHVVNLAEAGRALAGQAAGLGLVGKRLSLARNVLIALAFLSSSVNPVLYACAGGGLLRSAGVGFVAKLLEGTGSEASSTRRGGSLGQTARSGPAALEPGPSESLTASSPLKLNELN
Method: Human PMN are isolated from heparinized venous blood of healthy donors by sedimentation on dextran T500. The supernatant is centrifuged on Ficoll Paque®, and the residual erythrocytes are removed by hypotonic lysis. The PMN are washed with Hank's isotonic saline solution (HBSS) free from Ca^2+ and Mg^2+.
[…] is verified by the trypan blue exclusion technique.
Study of binding to LTB4 receptors
Binding to PMN is carried out in HBSS free from Ca^2+ and Mg^2+ containing 5 mM HEPES buffer.
The PMN (10^6 cells) are incubated for 20 min at 4° C. with 1 nM [^3 H]LTB4 in the presence or absence of non-radioactive LTB4 or of the compounds of the invention at various concentrations.

[2] = tested on: human PMN; experiment: Inhibition of LTB4-induced chemotaxis of human PMN in vitro (BOYDEN-KELLER chambers); assay type: cell-based
Method: STUDY OF THE ACTIVITY OF THE COMPOUNDS OF THE INVENTION WITH RESPECT TO THE CHEMOTAXIS OF HUMAN PMN IN VITRO
PMN incubated in HBSS without Ca^2+ or Mg^2+ are labeled with ^51 chromium (1 μL Ci/10^6 cells) for 1 hour at 37° C. and then washed twice with HBSS.
The PMN are then resuspended at a concentration of 10^7 cells/cm^3 in Hank's buffer with the addition of 1% bovine albumin. LTB4 and the compounds of the invention dissolved in Hank buffer are introduced into the lower part of BOYDEN-KELLER chambers, two cellulose nitrate filters (Millipore, 3 μm) are placed on each well and the upper part of the chambers is filled with the cell suspension (Methods Enzymol 1988, vol. 162, pp 59-64).
The chambers are incubated for 150 min at 37° C. under an atmosphere of 95% humidified air and 5% CO2.
The radioactivity of the lower filter is measured with a scintillation spectrometer (Beckman LS 3801).

[3] = tested on: LTB4-induced contraction of parenchymatous strips of guinea pig lung; experiment: LTB4-induced contraction of isolated parenchymatous lung strips; parameters: species or system DUNKIN HARTLEY guinea pig; conditions: contraction stimulated with 30 nM LTB4, compound added 2 min before; read-out: 50% inhibition of the contraction (IC50)
Method: STUDY OF THE ACTIVITY OF THE COMPOUNDS OF THE INVENTION WITH RESPECT TO THE CONTRACTION OF PARENCHYMATOUS LUNG STRIPS
LTB4 has a contracting effect on isolated parenchymatous strips of guinea pig lung. The antagonist activity of the compounds of the invention with respect to this LTB4 -induced contraction is tested.
Parenchymatous strips of DUNKIN HARTLEY guinea pig lung are cut and placed in baths containing Tyrode's solution oxygenated with a stream of gas (95% O2 /5% CO2). The strips are connected to a polygraph (GOULD Statham) with an isometric tension of 400 mg. After 1 h of equilibrium, 1 μM mepyramine and 10 μM atroprine are added to the Tyrode's solution, and the compounds of the invention are tested for their antagonist activities. The contractile responses are recorded over 5 min. The antagonist activities of the compounds of the invention are tested by adding these compounds to the bath 2 min before stimulation of contraction with 30 nM LTB4.

[4] = tested on: swelling of the ear of a mouse; experiment: Topical inflammatory model (psoriasis), arachidonic acid ear swelling; assay type: in vivo; conditions: dose of 20 mg/ear, arachidonic acid 2 mg, 60 min
Method: STUDY OF THE ACTIVITY OF THE COMPOUNDS OF THE INVENTION WITH RESPECT TO A TOPICAL INFLAMMATORY MODEL (psoriasis)
The present test enables the anti-inflammatory activity of the compounds of the invention with respect to such dermal lesions to be tested.
(Current Test Protocols-Pharmacology Service-Panlabs-June 92).
Arachidonic acid (2 mg in 20 μl of an acetone/pyridine/water (7:2:1) mixture) is applied topically to the anterior and posterior surfaces of the right ear of a mouse 30 min after a similar application of the test compound or of the vehicle (20 μl). The swelling of the ear is measured by a Dyer type gauge after 60 min as an index of the inflammation.
The percentage inhibition is calculated according to the formula: Ic-lt/Ic×100, in which Ic and It represent the increase in thickness (in mm) of the ear in the control mouse and in the treated mouse, respectively.

[5] = Solubility of the salt in water; assay type: physicochemical; conditions: sodium salt
[6] = Stability of the solution of the salt; assay type: physicochemical; conditions: sodium salt, aqueous solution

O=C(O)C[C@]1(O)CCC[C@H](/C=C/C(O)CCCCc2ccccc2)C1 (relative stereo) [Example 7, (1S*,3S*)-1-HYDROXY-3-[(3R*S*,E)-3-HYDROXY-7-PHENYL-1-HEPTEN-1-YL]-1-CYCLOHEXANE-ACETIC ACID]
IC50 [1]: 0.2 µM
inhibition of the action of LTB4 on cell migration (in words) ([2]; up to a concentration of 50 μM): total inhibition
IC50 [3]: 0.04 µM
decrease in the volume of the ear [4]: 30%

O=C(O)C[C@]1(O)CCC[C@H](/C=C/C(O)CCCCc2ccccc2)C1 (relative stereo) [Sodium (1S*,3S*)-1-hydroxy-3-[(3R*S*,E)-3-hydroxy-7-phenyl-1-hepten-1-yl]-1-cyclohexaneacetate]
solubility [5]: 100 mg/mL
Stability of the solution [6]: more than 18 months

CN(C)C(=O)C[C@]1(O)CCC[C@H](/C=C/C(O)CCCCc2ccccc2)C1 (single isomer, unassigned) [Example 69, (1S*,3S*)-1-HYDROXY-3-[(3R*S*,E)-3-HYDROXY-7-PHENYL-1-HEPTEN-1-YL]CYCLOHEXANE-1-(N,N-DIMETHYLACETAMIDE)]
IC50 [1]: 0.5 µM

CN(C)C(=O)C[C@@]1(O)CCC[C@H](/C=C/C(O)CCCCc2ccccc2)C1 (single isomer, unassigned) [Example 71, (1R*,3S*,E)-1-HYDROXY-3-[(3R*S*,E)-3-HYDROXY-7-PHENYL-1-HEPTEN-1-YL]CYCLOHEXANE-1-(N,N-DIMETHYLACETAMIDE)]
IC50 [1]: 2 µM

CCCCC/C=C\C[C@@H](O)/C=C/C=C/C=C\[C@@H](O)CCCC(=O)O [LTB4, Leukotriene B4, reference compound]
displacement of [^3 H]LTB4 from its specific binding sites (in words) ([1]; human PMN, [^3 H]LTB4 (1 nM), increasing doses of unlabeled LTB4): dose-dependent displacement
effect on the spontaneous migration of human PMN (in words) ([2]; LTB4 0.1 to 100 nM, BOYDEN-KELLER chambers): causes an activation of the spontaneous migration
